Experimental data published in ChEMBL document CHEMBL1201862, “PubChem BioAssay data set” (2004).
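Values below derive from 48-hour exposures of cells grown in 96-well plates, with endpoints linearly interpolated between the two concentrations bracketing the appropriate inhibition level. At the GI50, growth is halved.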 Calls of active or inactive are those of the source. No stated cut-off is given here; in the data, active = GI50 up to about 1.1 µM and inactive = higher.

Legend:
Assay in all cases: DTP human tumour cell line panel, 48 h
[1] = system: Hs-578T
[2] = system: MDA-N
[3] = system: T47D
[4] = system: DMS-114
[5] = system: KM-20L2
[6] = system: XF498
[7] = system: HOP-18
[8] = system: SNB-78

| SMILES | GI50 [1] | GI50 [2] | GI50 [3] | GI50 [4] | GI50 [5] | GI50 [6] | GI50 [7] | GI50 [8] |
| --- | --- | --- | --- | --- | --- | --- | --- | --- |
| CC(C)c1ccc2nc3ccc(C(=O)NCCN(C)C)cn3c(=O)c2c1 | 15.2 µM (inactive) | 16.4 µM (inactive) | 19.1 µM (inactive) |  |  |  |  |  |
| COC1=C(N2CC2)C(=O)c2nc3n(c2C1=O)CCC3 | 5.09 µM (inactive) | 1.38 µM (inactive) | 1.79 µM (inactive) |  |  |  |  |  |
| C#CCOCCCC(=O)O |  | > 100 µM (inactive) | > 100 µM (inactive) |  |  |  |  |  |
| NN(CC(=O)O)CC(=O)O | > 100 µM (inactive) | > 100 µM (inactive) | > 100 µM (inactive) |  |  |  |  |  |
| NCCN1C(=O)c2ccccc2C1(O)c1ccc(Cl)cc1 (stereo unspecified) | 16.2 µM (inactive) | 18.2 µM (inactive) | 19.4 µM (inactive) |  |  |  |  |  |
| COc1ccc(OC)c2c(C)ccnc12 |  | 26.3 µM (inactive) | 22.5 µM (inactive) |  |  |  |  |  |
| O=[N+]([O-])c1cc([As](Br)c2ccc(O)c([N+](=O)[O-])c2)ccc1O | 2.41 µM (inactive) | 1.53 µM (inactive) | 0.204 µM (active) |  |  |  |  |  |
| COc1cc2c(c3c1c(=O)c1ccccc1n3C)C=CC1(CCCCC1)O2 | 2.54 µM (inactive) | 2.96 µM (inactive) | 4.41 µM (inactive) |  |  |  |  |  |
| CC(=O)OCC1OC(n2cnc3nc(Br)[nH]c(=O)c32)C(OC(C)=O)C1OC(C)=O (stereo unspecified) | > 100 µM (inactive) | > 100 µM (inactive) | > 100 µM (inactive) |  |  |  |  |  |
| COP(=O)(OC)C(=O)N1N(c2ccc([N+](=O)[O-])cc2)C(=O)C(C)NC1(NNc1ccc([N+](=O)[O-])cc1)P(=O)(OC)OC (stereo unspecified) |  |  |  | > 100 µM (inactive) | > 100 µM (inactive) | > 100 µM (inactive) |  |  |
| CC1(C)COC(c2cccc(C(=O)c3ccccc3)c2)=N1 |  | 41 µM (inactive) | 25.7 µM (inactive) |  |  |  |  |  |
| c1cc2nsnc2c2c[nH]cc12 | 48.1 µM (inactive) | 71.4 µM (inactive) | 21 µM (inactive) |  |  |  |  |  |
| COc1cc(S(=O)(=O)Nc2nc(-c3ccc(N4C(=O)C(CC(=O)O)SC4c4cccs4)cc3)cs2)ccc1Cl (stereo unspecified) | 46 µM (inactive) | 43.3 µM (inactive) | 25.9 µM (inactive) |  |  |  |  |  |
| CC(=O)Nc1cc2ccc(=O)oc2cc1Cl | > 100 µM (inactive) | > 100 µM (inactive) | > 100 µM (inactive) |  |  |  |  |  |
| CC1(C)C2=CCCC(=O)[C@@]2(C)CC[C@@H]1O |  |  |  | > 100 µM (inactive) | > 100 µM (inactive) | > 100 µM (inactive) | > 100 µM (inactive) | > 100 µM (inactive) |
| O=C1COc2cccnc2N1CCCCO | > 100 µM (inactive) | > 100 µM (inactive) | 38.1 µM (inactive) |  |  |  |  |  |
| C=C1CC[C@@H](CCC2CCC3(OC2)O[C@]2(O)CC[C@@]3(C)OC2(C)C)C(C)(C)[C@H]1C/C=C1\CCOC1=O (stereo partly specified) | 20.5 µM (inactive) | 20 µM (inactive) |  |  |  |  |  |  |
| CN1Nc2ccccc2CC1=O |  |  |  | > 100 µM (inactive) | > 100 µM (inactive) | > 100 µM (inactive) | > 100 µM (inactive) | > 100 µM (inactive) |
| Cc1ccc(S(=O)(=O)NNC(=O)c2sc(-c3nc(C)c(C(=O)NNS(=O)(=O)c4ccc(C)cc4)s3)nc2C)cc1 |  |  |  |  | > 100 µM (inactive) |  |  | > 100 µM (inactive) |
| COC(=O)[C@]1(C)C(OC)=CC(=O)C2C1[C@H]1CCC[C@@H]21 (stereo partly specified) |  |  |  | > 100 µM (inactive) | > 100 µM (inactive) | > 100 µM (inactive) | > 100 µM (inactive) | > 100 µM (inactive) |
| COc1cc(/C=C2\N=C(c3ccccc3)N(/N=C/c3cc4cc(C)ccc4nc3Cl)C2=O)ccc1O | 40.6 µM (inactive) | 15.9 µM (inactive) | 56.1 µM (inactive) |  |  |  |  |  |
| CCOC(=O)c1nnsc1NN | > 100 µM (inactive) | 72.6 µM (inactive) |  |  |  |  |  |  |
| COc1ccccc1N1C(=O)CSC1c1cccc(Oc2ccccc2)c1 (stereo unspecified) | 20.9 µM (inactive) |  | 18.3 µM (inactive) |  |  |  |  |  |
| COc1ccccc1/C=C\c1cnnc2ccccc12 | > 10 µM (inactive) | 3.33 µM (inactive) | > 10 µM (inactive) |  |  |  |  |  |
| O=C(O)CCCc1nc2c(n1Cc1ccccc1)C(=O)c1ccccc1C2=O | 75.7 µM (inactive) | 22.5 µM (inactive) | 60.5 µM (inactive) |  |  |  |  |  |
| N#CCCN(CCC#N)c1ccc(/C=C(\NC(=O)c2cc([N+](=O)[O-])ccc2Cl)C(=O)Nc2ccccc2)cc1 |  |  |  | 55 µM (inactive) | > 100 µM (inactive) | > 100 µM (inactive) | > 100 µM (inactive) | > 100 µM (inactive) |
| Cc1cc(O)nc(NN2C(Cl)C(=O)C2c2ccc([N+](=O)[O-])cc2)n1 (stereo unspecified) |  |  |  | 8.07 µM (inactive) | 17.1 µM (inactive) |  | 11.3 µM (inactive) | 7.36 µM (inactive) |
| CC(=O)O[C@H]1C[C@H]2C(=S)Nc3ccccc3C(=S)N2C1 | > 100 µM (inactive) | > 100 µM (inactive) | > 100 µM (inactive) |  |  |  |  |  |
| COC1=CC2(CC(OC)=C1OC)OC21COc2ccccc2C1=O (stereo unspecified) | > 100 µM (inactive) |  | 34.3 µM (inactive) |  |  |  |  |  |
| Cc1nc(C(N)=S)sc1C(=O)C/C(=N/N)C(=O)Nc1ccc(Cl)cc1 | 39.1 µM (inactive) | > 100 µM (inactive) | 46.1 µM (inactive) |  |  |  |  |  |
